# Patent EP3263134A1, “COMPOSITION FOR PREVENTING OR TREATING VALVE CALCIFICATION, CONTAINING DPP-4 INHIBITOR” (The Asan Foundation, priority 2015, dated 2016)
# Columns and labels:
# [1] = system: DPP-4 promoter; experiment: DPP-4 promoter activity in VSMCs (luciferase reporter); assay type: cell-based; conditions: wild-type or eNOS-/- mouse VSMCs (FIG. 7c)
# Experimental: To obtain more direct evidence for the regulatory function of NO in a decrease in DPP-4 expression, it was determined whether DPP-4 promoter activity would be regulated by NO.
# First, VSMCs were cultured in a 6-well plate to reach a confluency of 80%. Using Lipofectamine2000 (Life Technology), a DPP-4 reporter containing a normal or mutated NF-κB binding site was cloned into a pGL3-basic vector (Promega), and the cells were transfected with the vector. After 24 hours, firefly and Renilla luciferase activities in the cells were measured using a Dual-Glo luciferase assay system, (Promega). The firefly luciferase activity was normalized with the Renilla luciferase activity.
# [2] = system: NF-κB; experiment: NF-κB activity in VSMCs; assay type: cell-based; conditions: wild-type or eNOS-/- mouse VSMCs (FIG. 7d)
# Text: NF-κB activity in VSMCs is inhibited by NO. It was shown that NF-κB activity was higher in eNOS-/- mouse VSMCs than in wild-type mouse VSMCs, and this activity was reduced by treatment with DETA-NO (FIG. 7d). Because the DPP4 promoter has a putative NF-κB binding site, the present inventors determined whether NF-κB activity could directly regulate DPP-4 promoter activity.
# [3] = system: DPP-4; experiment: DPP-4 mRNA and protein expression in VSMCs (RT-PCR, immunoblot); assay type: cell-based, mouse
# Experimental: (§1) The aortas, extracted from the eNOS-/- mice and the wild-type mice together with the hearts in Example 2, were washed in serum-free M199 (Cellgro), cut to small pieces, and then cultured in M199 containing 20% fetal calf serum and 3 mg/mL collagenase (Sigma) in a water bath at 37°C for 3 hours. […] The isolated vascular smooth muscle cells were seeded at a concentration of 30%, and after 24 hours, the medium was replaced with osteogenic basal medium (Osteogenic SingleQuots, Lonza, USA). The medium was replaced at 3-day intervals during 28 days of culture.
# In this Example, vascular smooth muscle cells obtained according to the method of Example 3 were treated with DETA-NONOate (DETA-NO) that is an NO donor.
# [4] = system: DPP-4; conditions: stated as known; cited from earlier work
# [5] = system: eNOS-/- mouse VSMCs (vascular smooth muscle cells); experiment: ALP activity, inhibition of osteogenic differentiation of VSMCs; assay type: cell-based; set-up: dose or concentration left out as unconfirmed; conditions: of each inhibitor for 7 days, 48-well plate, compared to negative control group not treated with the DPP-4 inhibitor
# Experimental: as §1
# In order to examine the effects of DPP-4 inhibitors other than sitagliptin on the inhibition of valvular calcification, the effects of treatment with various kinds of DPP-4 inhibitors on the inhibition of osteogenic differentiation of eNOS-/- mouse VSMCs (vascular smooth muscle cells) were evaluated.
# eNOS-/- mouse VSMCs cultured in a 48-well plate were treated with […] of each of alogliptin, evogliptin, linaglipin, saxagliptin and vildagliptin for 7 days, and ALP activity in the cells was measured. As a result, ALP activity inhibition of 50% or lower compared to that in a negative control group not treated with the DPP-4 inhibitor was observed.
# [6] = system: aortic valves from the eNOS-/- mice; experiment: von Kossa (VK) staining of aortic valve sections; assay type: in vivo; conditions: eNOS-/- mice after administration of sitagliptin (FIGS. 10a, 10b)
# Experimental: Human aortic valve samples were fixed in 4% formalin solution for 24 hours, and then embedded in paraffin and sectioned to a thickness of 4 µm. In order to observe calcium deposition in the paraffin-embedded aortic valve and the cardiac basal segment, Von Kossa (VK) staining and Alizarin red (AR) staining were performed. For Von Kossa staining, the aortic valve fixed in formalin was washed with distilled water, and then exposed to 5% water-soluble AgNO3 and intense light at room temperature for 60 minutes.
# (§2) C57BL/6J eNOS-/- (endothelial nitric oxide synthase knockout) mice (8-week old, n = 10, The Jackson Laboratory, Bar Harbor, Me, USA) and C57BL/6J wild-type mice (8-week old, wide type, WT, n = 10) were used. After purchase, the mice were fed with standard rodent feed up to 3 months of age, and administered with saline or sitagliptin (15 mg/kg/ day, Merck & Co., Inc.) for 12 weeks.
# [7] = system: Human aortic valvular interstitial cells (VICs); experiment: Osteoblast differentiation (osteogenic ability) of human valvular interstitial cells; assay type: cell-based; conditions: human VICs treated with DPP-4 plus sitagliptin (FIG. 11)
# Experimental: Using human VICs, the role of DPP-4 in osteoblast differentiation was analyzed.
# Human VICs were isolated from aortic valve leaflets according to a conventional cell isolation method, and VIC cells at passage 2 to 10 were used. The VIC cells were incubated with DPP-4 (R & D), sitagliptin or DETA-NONOate (Enzo Life Sciences).
# [8] = system: eNOS-/- mice; experiment: Osteosense680 imaging of aortic calcification / osteogenic activity after oral administration; assay type: in vivo; conditions: oral sitagliptin 15 mg/kg/day for 12 weeks, Osteosense680 imaging (FIGS. 9a, 9b)
# Experimental: as §2
# To detect osteogenic activity in the eNOS-/- mice, a bisphosphonate-conjugated imaging agent (Osteosense680, VisEn Medical Inc.) was injected via the tail vein. Osteosense680 binds to a calcified site (particularly hydroxyapatite) in vivo and acts as an imaging agent to detect osteoblast activity. The mice were euthanized, and then the whole body or isolated aortas were imaged using OptixMX3 (ART Advanced Research Technologies, Inc).
smiles,measurement,setting,value
"NCCN(CCN)[N+]([O-])=NO [DETA-NO, DETA-NONOate]",DPP-4 promoter activity,[1],inhibited by treatment with DETA-NO in a concentration-dependent manner
same,NF-κB activity,[2],reduced
same,expression of DPP-4 mRNA in the VSMCs,[3]; RT-PCR after 24 hours of treatment with DETA-NO (FIG. 7a),decreased
same,expression of DPP-4 protein in the VSMCs,[3]; immunoblot after 48 hours of treatment with DETA-NO (FIG. 7b),also decreased
"COC(=O)[C@@H](N)CCCNC(=N)N[N+](=O)[O-] [L-NAME, Nω-nitro-L-arginine methyl ester]",DPP-4 expression in the aorta,[4],significantly increases DPP-4 expression in the aorta
Cn1c(=O)cc(N2CCC[C@@H](N)C2)n(Cc2ccccc2C#N)c1=O [alogliptin],ALP activity inhibition,[5],≤ 50%
CC(C)(C)OC[C@@H]1C(=O)NCCN1C(=O)C[C@H](N)Cc1cc(F)c(F)cc1F [evogliptin],ALP activity inhibition,[5],≤ 50%
CC#CCn1c(N2CCC[C@@H](N)C2)nc2c1c(=O)n(Cc1nc(C)c3ccccc3n1)c(=O)n2C [linaglipin],ALP activity inhibition,[5],≤ 50%
N#C[C@@H]1C[C@@H]2C[C@@H]2N1C(=O)[C@@H](N)C12CC3CC(CC(O)(C3)C1)C2 [saxagliptin],ALP activity inhibition,[5],≤ 50%
N[C@@H](CC(=O)N1CCn2c(nnc2C(F)(F)F)C1)Cc1cc(F)c(F)cc1F [sitagliptin],aortic calcification in VK-stained sections of the aortic valves,[6],aortic calcification can be inhibited
same,DPP-4-induced increase of the osteogenic ability of VICs,[7],eliminated
same,aortic calcification in the living mice,[8],reduced aortic calcification
N#C[C@@H]1CCCN1C(=O)CNC12CC3CC(CC(O)(C3)C1)C2 [vildagliptin],ALP activity inhibition,[5],≤ 50%
